This note sets out measurements from PMC5123592 (Nature chemistry, 2016).

For orientation: Kd means the equilibrium constant for the complex coming apart. The low end stands for tighter binding, the high end for weaker binding.

Assay [1] concerns the target T1, ZMPSTE24 (Homo sapiens, UniProt O75844).
T1 sequence (O75844 1-475): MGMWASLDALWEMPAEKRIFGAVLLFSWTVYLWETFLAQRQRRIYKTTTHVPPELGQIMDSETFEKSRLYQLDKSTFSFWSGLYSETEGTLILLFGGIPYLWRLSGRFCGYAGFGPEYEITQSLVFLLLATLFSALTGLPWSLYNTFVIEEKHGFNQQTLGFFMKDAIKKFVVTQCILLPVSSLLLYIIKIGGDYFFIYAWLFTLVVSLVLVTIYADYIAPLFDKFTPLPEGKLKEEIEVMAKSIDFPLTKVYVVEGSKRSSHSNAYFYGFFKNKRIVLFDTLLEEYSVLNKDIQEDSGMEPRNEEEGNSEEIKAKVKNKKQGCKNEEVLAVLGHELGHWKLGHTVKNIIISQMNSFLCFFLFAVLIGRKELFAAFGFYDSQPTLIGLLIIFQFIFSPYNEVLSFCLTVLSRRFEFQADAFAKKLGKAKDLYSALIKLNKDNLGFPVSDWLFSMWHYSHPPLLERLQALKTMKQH
Nature of the assay: native mass spectrometry. In kind it is binding. As to conditions: 15 μM drug, equimolar ZMPSTE24, C8E4.

Assay [2] addresses T1, ZMPSTE24. The assay is described as follows: native mass spectrometry titration. In kind it is binding.

Turning to `CC(C)CN(C[C@@H](O)[C@H](Cc1ccccc1)NC(=O)O[C@H]1CCOC1)S(=O)(=O)c1ccc(N)cc1` [amprenavir], the “binding observed at 15 μM” value in assay [1] was “binding of amprenavir and ritonavir were observed, albeit in lower amounts”.
`Cc1cccc(C)c1OCC(=O)N[C@@H](Cc1ccccc1)[C@@H](O)C[C@H](Cc1ccccc1)NC(=O)[C@H](C(C)C)N1CCCNC1=O` [lopinavir] registered a dissociation constant Kd in assay [2] of 25 ± 1.2 µM.
